BindingDB's records for doi:10.1016/0960-894X(95)00347-V (1995)

What was measured:
[1] = Inhibition of porcine Pancreatic elastase with 10 min pre-incubation
[2] = Inhibition of porcine Pancreatic elastase without pre-incubation
[3] = as above; remark: listed apart in the source
[4] = as above; remark: listed apart in the source

IC50 [1] [nM] | IC50 [2] [nM] | IC50 [3] [nM] | IC50 [4] [nM] | SMILES
490 | 2100 | – | – | Cc1ccc(S(=O)(=O)O[C@H]2C(=O)N3[C@@H](C(=O)OCOC(=O)C(C)(C)C)C(C)(C)S(=O)(=O)[C@H]23)cc1 [(2S,5R,6S)-3,3-Dimethyl-4,4,7-trioxo-6-(toluene-4-sulfonyloxy)-4lambda*6*-thia-1-aza-bicyclo[3.2.0]heptane-2-carboxylic acid 2,2-dimethyl-propionyloxymethyl ester]
– | – | 150 | 23000 | Cc1ccc(S(=O)(=O)O[C@H]2C(=O)N3[C@@H](C(=O)OCc4ccccc4)C(C)(C)S(=O)(=O)[C@H]23)cc1 [(2S,5R,6S)-3,3-Dimethyl-4,4,7-trioxo-6-(toluene-4-sulfonyloxy)-4lambda*6*-thia-1-aza-bicyclo[3.2.0]heptane-2-carboxylic acid benzyl ester]
– | 1000 | – | – | CC(C)(C)C(=O)OCOC(=O)[C@@H]1N2C(=O)[C@H](OS(=O)(=O)C(F)(F)F)[C@H]2S(=O)(=O)C1(C)C [(2S,5R,6S)-3,3-Dimethyl-4,4,7-trioxo-6-trifluoromethanesulfonyloxy-4lambda*6*-thia-1-aza-bicyclo[3.2.0]heptane-2-carboxylic acid 2,2-dimethyl-propionyloxymethyl ester]
– | 680 | – | – | CC1(C)[C@H](C(=O)OCc2ccccc2)N2C(=O)[C@H](OS(=O)(=O)C(F)(F)F)[C@H]2S1(=O)=O [(2S,5R,6S)-3,3-Dimethyl-4,4,7-trioxo-6-trifluoromethanesulfonyloxy-4lambda*6*-thia-1-aza-bicyclo[3.2.0]heptane-2-carboxylic acid benzyl ester]
– | – | 220000 | 280000 | CC(C)(C)C(=O)OCOC(=O)[C@@H]1N2C(=O)[C@H](Cl)[C@H]2S(=O)(=O)C1(C)C [(2S,5R,6S)-6-Chloro-3,3-dimethyl-4,4,7-trioxo-4lambda*6*-thia-1-aza-bicyclo[3.2.0]heptane-2-carboxylic acid 2,2-dimethyl-propionyloxymethyl ester]
540 | 4300 | – | – | CC(C)(C)C(=O)OCOC(=O)[C@@H]1N2C(=O)[C@H](OS(C)(=O)=O)[C@H]2S(=O)(=O)C1(C)C [(2S,5R,6S)-6-Methanesulfonyloxy-3,3-dimethyl-4,4,7-trioxo-4lambda*6*-thia-1-aza-bicyclo[3.2.0]heptane-2-carboxylic acid 2,2-dimethyl-propionyloxymethyl ester]
– | – | 130 | 2200 | CC1(C)[C@H](C(=O)OCc2ccccc2)N2C(=O)[C@H](OS(C)(=O)=O)[C@H]2S1(=O)=O [(2S,5R,6S)-6-Methanesulfonyloxy-3,3-dimethyl-4,4,7-trioxo-4lambda*6*-thia-1-aza-bicyclo[3.2.0]heptane-2-carboxylic acid benzyl ester]
